The source of these data is ChEMBL document CHEMBL2440106, “Cloning, characterization, and inhibition studies of a β-carbonic anhydrase from Leishmania donovani chagasi, the protozoan parasite responsible for leishmaniasis” (J Med Chem, 2013).

Each structure is given as a SMILES string. Values after ≈ are worked out from the molar mass of the structure shown. Active and inactive are the calls of the source. The calls are words filed in the database; no cut-off is given here.

Test [1] concerns Leishmania amazonensis. Briefly: Antileishmanial activity against promastigote form of Leishmania amazonensis MHOM/BR/76/Ma-5 assessed as parasite growth inhibition at 256 uM after 120 hrs by resazurin dye-based assay relative to control. The test is classed as functional. The settings on record: MHOM/BR/76/Ma-5, 120 h, read-out: GI.
For test [2], the system named is Leishmania chagasi. Briefly: Antileishmanial activity against promastigote form of Leishmania chagasi MHOM/BR/1974/PP75 assessed as parasite growth inhibition at 256 uM after 120 hrs by resazurin dye-based assay relative to control. The test is classed as functional. The settings on record: MHOM/BR/1974/PP75, 120 h, read-out: GI.
Test [3] relates to Leishmania chagasi. Nature of the test: Antileishmanial activity against promastigote form of Leishmania chagasi MHOM/BR/1974/PP75 assessed as parasite growth inhibition at 128 uM after 120 hrs by resazurin dye-based assay relative to control. The test is classed as functional. The settings on record: MHOM/BR/1974/PP75, 120 h, read-out: GI.
For test [4], the system named is Leishmania chagasi. Briefly: Antileishmanial activity against promastigote form of Leishmania chagasi assessed as accumulation of intracytoplasmic electron-dense granules at 256 uM after 24 hrs by transmission electron microscopic analysis. In kind it is functional, organism-based.
Test [5] deals with Leishmania chagasi. Briefly: Antileishmanial activity against promastigote form of Leishmania chagasi assessed as marked swelling of vacuoles at 256 uM after 24 hrs by transmission electron microscopic analysis. In kind it is functional, organism-based.
For test [6], the system named is Leishmania amazonensis. Briefly: Antileishmanial activity against promastigote form of Leishmania amazonensis MHOM/BR/76/Ma-5 assessed as parasite growth inhibition after 120 hrs by resazurin dye-based assay. In kind it is functional. The settings on record: MHOM/BR/76/Ma-5, 120 h. In general terms: Resazurin is reduced to fluorescent resorufin, in cell work by metabolically active cells.

The subject of test [7] is Leishmania amazonensis. Nature of the test: Antileishmanial activity against promastigote form of Leishmania amazonensis MHOM/BR/76/Ma-5 assessed as parasite growth inhibition at 128 uM after 120 hrs by resazurin dye-based assay relative to control. In kind it is functional. The settings on record: MHOM/BR/76/Ma-5, 120 h, read-out: GI.
The subject of test [8] is Leishmania chagasi. Briefly: Antileishmanial activity against promastigote form of Leishmania chagasi assessed as appearance of many number of vacuoles in cytoplasm at 256 uM after 24 hrs by transmission electron microscopic analysis. In kind it is functional, organism-based.
For test [9], the system named is Leishmania chagasi. Nature of the test: Antileishmanial activity against promastigote form of Leishmania chagasi assessed as appearance of autophagic vacuoles at 256 uM after 24 hrs by transmission electron microscopic analysis. In kind it is functional, organism-based.
In test [10] the test system is Leishmania chagasi. Nature of the test: Antileishmanial activity against promastigote form of Leishmania chagasi MHOM/BR/1974/PP75 assessed as parasite growth inhibition after 120 hrs by resazurin dye-based assay. The test is classed as functional. The settings on record: MHOM/BR/1974/PP75, 120 h.

Consider `O=C(N/N=C1\C(=O)Nc2ccccc21)Nc1n[nH]c(=S)s1`, for which the inhibition of growth at 256 µM in the test on Leishmania amazonensis [1] and in the test on Leishmania chagasi [2] was 0% each time.
Consider `C/C(=N/NC(=O)Nc1nnc(S)s1)c1ccc(Cl)cc1`, for which the results for the inhibition of growth at 256 µM in the test with Leishmania amazonensis [1] and with Leishmania chagasi [2] were 7% and 0%, respectively.
Turning to `O=C(N/N=C\c1ccc(Cl)cc1)Nc1nnc(S)s1`, the inhibition of growth at 256 µM with Leishmania amazonensis [1] was 62.3%; in the test with Leishmania chagasi [2], 51.5%.
The like results for `O=C(N/N=C1\C(=O)Nc2ccc(Br)cc21)Nc1n[nH]c(=S)s1` were, in that order, 0% and 0%.
For `COc1cccc(/C=N\NC(=O)Nc2nnc(S)s2)c1`, the inhibition of growth at 256 µM was found to be 76.4% in the test on Leishmania amazonensis [1] and 32.2% with Leishmania chagasi [2].
The like results for `O=C(N/N=C\c1ccc(F)cc1)Nc1nnc(S)s1` were, in that order, 56% and 18%.
As to `C/C(CC(C)C)=N/NC(=O)Nc1nnc(S)s1`, the inhibition of growth at 256 µM was 91.9% in the test on Leishmania amazonensis [1] and 74.8% in the test with Leishmania chagasi [2].
In general, MIC refers to the least concentration at which growth counts as inhibited. On to `O=C(N/N=C\c1cccc(Br)c1)Nc1nnc(S)s1`, for which the inhibition of growth at 128 µM was 30% with Leishmania chagasi [3] and 28% in the test on Leishmania amazonensis [7]. Further, the outcome with Leishmania chagasi [4], in the test on Leishmania chagasi [5], in the test on Leishmania chagasi [8] and with Leishmania chagasi [9] was Active. Moreover, the MIC with Leishmania amazonensis [6] and with Leishmania chagasi [10] was 256 µM (≈ 91.7 µg/mL) throughout. The inhibition of growth at 256 µM with Leishmania amazonensis [1] was 97%; in the test on Leishmania chagasi [2], 100%.
For `O=C(N/N=C\c1ccccc1)Nc1nnc(S)s1`, the figures for the inhibition of growth at 256 µM in the test on Leishmania amazonensis [1] and in the test with Leishmania chagasi [2] were 45.8% and 36.3%, respectively.
